Marks after values point to notes of the source that are not given here.
System: Purpureocillium lilacinum spores
Assay: Spore viability (germination rate) of Purpureocillium lilacinum spores dispersed in fluid and stored at 30° C.
Format: cell-based
Settings: P. lilacinum spores in fluid
Description: 3 g of Purpureocillium lilacinum pure spore powder were transferred into a formulation vessel (IKA Type DT-20 mixing vessel with dispersion tool for Ultra Turrax) using a sterile spoon. 12 mL of fluid were added into the respective formulation vessel and dispersed using ultra turrax tube drive control for 1 min at 3000 rpm; change direction after 30 sec. After this 2.8 mL were transferred in four sample bottles (Wheaton Serum vial, Type I) leaving little headspace and closed tight using crimpneck caps (Macherey—Nagel type N 13). Afterwards all sample bottles were transferred to an incubator set at 30° C. and stored for a given time.
In regular intervals a sample was retrieved from the storage location and analyzed for spore viability. For this purpose, the original samples were thoroughly homogenized. Aliquots of 0.25 g or 250 μL of each sample were transferred into 50 mL falcon tubes. The tubes were filled up to 25 g using a sterile aqueous solution containing 2% Tween 80 and homogenized by vortexing to achieve the first dilution step (1:100 dilution). This dilution was used for further dilution and spotting on agar.
For these samples, an alternative dispersion/dilution method was applied where the oil phase was stripped from the spores first: 0.25 g or 250 μL of sample are weighted into a 2 mL Eppendorf tube, and 0.5 mL of 2% Tween 80 is added, and the mixture is transferred into an Eppendorf centrifuge where it is centrifuged for 1 min at 10.000 rpm. The supernatant (=upper oily phase) is discarded by using a pipette. […] 250 μL or 0.25 g of each sample were transferred into a sterile 50 mL Falcon tube. The tubes were filled up to 25 g using a sterile aqueous solution containing 2% Tween 80 and homogenized by vortexing to achieve the first dilution step (1:100 dilution). This dilution was used for further dilution and spotting on agar.
For evaluation of spore germination rate prepare a 1:30000 dilution based on the 1:100 dilution achieved by multiple automated dilution (pipetting robot, 96 well plate). Afterwards 12×12 cm agar plates were taken and spotted with 10 times 5 μL of each sample using an automated 12-Channel pipet. Wait until liquid is soaked up by agar and transfer agar plate to an incubator and incubate at 25° C. for 17 hours. Open the plate and place it under the microscope. Randomly chose one area per spot and record the number of germinated and non-germinated spores that are within the designated field. At least 200 spores per sample need to be evaluated. If needed count more than one field per spot.

SMILES	spore viability [%] at day 1	spore viability [%] after 5-6 w (35-40 d) (storage at 30° C., 35-40 d)	spore viability [%] after 3 m (87-92 d) (storage at 30° C., 87-92 d)	spore viability [%] taken after 7 m of storage (storage at 30° C., 7 m)	spore viability [%] after 2 w (12-15 d) (storage at 30° C., 12-15 d)	spore viability [%] after 1 m (27-28 d) (storage at 30° C., 27-28 d)	spore viability [%] after 2 m (51-55 d) (storage at 30° C., 51-55 d)
CCCCOC(=O)CCCCC(=O)OCCCC [Adimoll DB, di-n-Butyl adipate]	98.9%	97.5%	89.8%	–	–	–	–
CC(=O)OCC(COC(C)=O)OC(C)=O [Triacetin, Glycerin triacetate]	98.3%	–	–	69.4* %	97.9%	96.2%	90.8%

From patent US20260033491A1, “FUNGAL SPORE FORMULATIONS INCLUDING CARRIER FLUIDS” (priority 2018, published 2026)
